Assay results: patent US8063069B2, “Prucalopride-N-oxide” (Janssen Pharmaceutica N.V., priority 2002, dated 2011)
Like-named read-outs stand apart in the source and are kept apart here.

What was measured:
[1] = pharmacokinetics of prucalopride in plasma after single oral administration to beagle dogs; assay type: in vivo; settings: for Cmax / Tmax: dog, plasma, po, 2.5 mg/kg; for Cmax: read-out: Cmax peak plasma concentration of prucalopride; for Tmax: read-out: Tmax time to reach the peak plasma concentration of prucalopride
Procedure: Two male beagle dogs were dosed orally with 1 ml of a test formulation comprising 2.5 mg/kg of 4-amino-5-chloro-2,3-dihydro-N-[1-(3-methoxypropyl)-4-piperidinyl]-7-benzofuran-carboxamide (“prucalopride”).
After a wash-out period of four weeks, the same two dogs were dosed orally with 1 ml of a test formulation comprising 2.61 mg/kg of compound (1).
Blood samples were taken via the jugular vein immediately before dosing (blank sample) and at 0.25 h, 0.5 h, 1 h, 1.5 h, 2 h, 4 h, 6 h, 8 h, and 24 h after dosing. Aliquots of 10 ml were collected in EDTA tubes. Immediately after collection of the blood samples, plasma samples were prepared by centrifugation at approximately 1700×g for approximately 10 minutes.
Concentrations of prucalopride in the plasma samples were determined by LC/MS/MS. The quantification limit for prucalopride was 5.0 ng/ml.
Based on the individual plasma concentration-time data, using the actual sampling times, the following pharmacokinetic parameters were determined for prucalopride after oral administration of prucalopride and compound (1) and summarized in Table 1. • Cmax peak plasma concentration, determined by visual inspection of the data • Tmax time to reach the peak plasma concentration, determined by visual inspection of the data. • AUC0-∞ area under the plasma concentration-time extrapolated to infinity

5-HT2A receptors = 5-HT2A receptors (Homo sapiens, UniProt P28223); settings: in words; cited from earlier work
5-HT3A receptors = target: T1, 5-HT3A receptors (Homo sapiens, UniProt P46098); settings: in words; cited from earlier work
T1 sequence (P46098 24-478): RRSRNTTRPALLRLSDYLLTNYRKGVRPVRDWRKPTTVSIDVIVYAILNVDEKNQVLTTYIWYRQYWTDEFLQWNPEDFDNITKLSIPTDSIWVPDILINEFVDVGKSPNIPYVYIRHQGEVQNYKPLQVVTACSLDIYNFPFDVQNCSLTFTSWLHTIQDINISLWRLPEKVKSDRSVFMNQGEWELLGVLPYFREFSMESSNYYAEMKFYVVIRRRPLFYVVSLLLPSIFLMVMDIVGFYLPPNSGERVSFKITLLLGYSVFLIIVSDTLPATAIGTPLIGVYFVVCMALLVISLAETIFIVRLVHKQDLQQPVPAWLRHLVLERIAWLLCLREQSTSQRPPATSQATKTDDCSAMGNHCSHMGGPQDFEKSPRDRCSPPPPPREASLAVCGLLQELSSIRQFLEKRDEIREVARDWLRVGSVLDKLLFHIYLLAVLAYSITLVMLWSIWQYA

5-HT4 receptors = 5-HT4 receptors (Homo sapiens, UniProt Q13639); settings: in words; cited from earlier work
colon = settings: in words, cited from earlier work
[2] = Dog 1, oral administration of compound (1) 2.61 mg/kg, prucalopride measured in plasma
[3] = Dog 2, oral administration of compound (1) 2.61 mg/kg, prucalopride measured in plasma
[4] = oral administration, dogs, in words
[5] = male, beagle, Dog 1, oral administration of prucalopride 2.5 mg/kg, prucalopride measured in plasma
[6] = male, beagle, Dog 2, oral administration of prucalopride 2.5 mg/kg, prucalopride measured in plasma

Sequence of 5-HT2A receptors (P28223 whole entry): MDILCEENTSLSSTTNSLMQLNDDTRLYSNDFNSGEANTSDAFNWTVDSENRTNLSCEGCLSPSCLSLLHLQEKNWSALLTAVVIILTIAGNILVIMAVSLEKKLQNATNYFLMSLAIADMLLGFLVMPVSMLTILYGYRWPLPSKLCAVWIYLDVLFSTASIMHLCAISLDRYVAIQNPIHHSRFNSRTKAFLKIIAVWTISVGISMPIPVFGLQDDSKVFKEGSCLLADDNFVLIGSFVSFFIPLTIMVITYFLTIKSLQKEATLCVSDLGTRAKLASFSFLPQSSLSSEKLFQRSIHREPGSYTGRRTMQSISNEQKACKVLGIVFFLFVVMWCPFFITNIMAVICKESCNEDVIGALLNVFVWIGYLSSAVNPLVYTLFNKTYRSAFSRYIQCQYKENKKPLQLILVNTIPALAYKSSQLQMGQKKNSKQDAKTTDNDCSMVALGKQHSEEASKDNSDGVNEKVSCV
Sequence of 5-HT4 receptors (Q13639 whole entry): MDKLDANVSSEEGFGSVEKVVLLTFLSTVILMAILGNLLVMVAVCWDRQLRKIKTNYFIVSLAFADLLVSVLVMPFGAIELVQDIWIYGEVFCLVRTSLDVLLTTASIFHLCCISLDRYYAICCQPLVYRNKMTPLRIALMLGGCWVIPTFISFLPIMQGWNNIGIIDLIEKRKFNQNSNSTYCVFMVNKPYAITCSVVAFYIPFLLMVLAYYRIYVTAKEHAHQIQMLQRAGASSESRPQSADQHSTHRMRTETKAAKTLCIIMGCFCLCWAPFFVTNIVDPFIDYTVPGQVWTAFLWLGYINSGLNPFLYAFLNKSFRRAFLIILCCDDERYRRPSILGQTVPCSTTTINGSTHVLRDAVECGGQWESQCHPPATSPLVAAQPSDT

Row | SMILES | AUC0-∞ area under the plasma concentration-time extrapolated to infinity, prucalopride [1, 2] [µg·h/mL] | Cmax peak plasma concentration of prucalopride [1, 2] [µg/mL] | Tmax time to reach the peak plasma concentration of prucalopride [1, 2] [h] | AUC0-∞ area under the plasma concentration-time extrapolated to infinity, prucalopride [1, 3] [µg·h/mL] | Cmax peak plasma concentration of prucalopride [1, 3] [µg/mL] | Tmax time to reach the peak plasma concentration of prucalopride [1, 3] [h] | peak plasma concentration Cmax of prucalopride, compared with oral prucalopride [1, 4] | systemic exposure to prucalopride, compared with oral prucalopride itself [1, 4] | AUC0-∞ area under the plasma concentration-time extrapolated to infinity, prucalopride ([1]; Dog 2, oral administration of prucalopride 2.5 mg/kg, prucalopride measured in plasma) [µg·h/mL] | Cmax [1, 5] [µg/mL] | Tmax [1, 5] [h] | Cmax [1, 6] [µg/mL] | Tmax [1, 6] [h] | AUC(0-inf) ([1]; male, beagle, Dog 1, oral administration of prucalopride 2.5 mg/kg, prucalopride measured in plasma, read-out: AUC0-∞ area under the plasma concentration-time extrapolated to infinity, prucalopride) [µg·h/mL] | affinity for 5-HT2A receptors (5-HT2A receptors) | affinity for 5-HT3A receptors (5-HT3A receptors) | agonism of 5-HT4 receptors (5-HT4 receptors) | colonic motility and defecation (colon; animals) | giant contractions in the colon (colon; propagated over the length of the colon as a peristaltic wave)
1 | COCCC[N@+]1([O-])CC[C@@H](NC(=O)c2cc(Cl)c(N)c3c2OCC3)CC1.O [compound (1), cis-4-amino-5-chloro-2,3-dihydro-N-[1-(3-methoxypropyl)-4-piperidinyl]-7-benzofurancarboxamide, N-oxide monohydrate] | 2.265 | 0.222 | 2.0 | 4.093 | 0.488 | 2.0 | lower | substantially lower | – | – | – | – | – | – | – | – | – | – | –
2 | COCCCN1CCC(NC(=O)c2cc(Cl)c(N)c3c2OCC3)CC1 [prucalopride, 4-amino-5-chloro-2,3-dihydro-N-[1-(3-methoxypropyl)-4-piperidinyl]-7-benzofuran-carboxamide] | – | – | – | – | – | – | – | – | 4.372 | 0.556 | 1 | 0.66 | 0.5 | 4.23 | no affinity | no affinity | potent and selective agonist | stimulates colonic motility and defecation | induces giant contractions in the colon
